Experimental findings from ChEMBL document CHEMBL5523700, “Discovery and characterization of potent spiro-isoxazole-based cereblon ligands with a novel binding mode” (Eur J Med Chem, 2024) are described below.

The term logP denotes a log measure of how a compound divides between an organic and an aqueous phase. For orientation: half-life means the time needed for the level to fall by half in the phase considered. One may read the pKi as the Ki on a negative log10 scale, so that one unit is a factor of ten.

The structures appear in SMILES notation. pKi: −log10 of the molar value.

A short description of data set [1]: Cytotoxicity against human PBMC cells assessed as cell survival at 30 uM incubated for 48 hrs by Cell Titer-Glo luminescent assay relative to control. It counts as toxicity, cell-based. Conditions: read-out: Survival. (In ATP-based viability assays light output follows the ATP content of the culture.)
Data set [2] is described as follows: Lipophilicity, logP of compound by HPLC analysis. It counts as physicochemical.
In the next data set the test system is KMS-12-PE. Kind of data set: Cytotoxicity against human KMS-12-PE cells assessed as cell survival at 30 uM incubated for 48 hrs by Cell Titer-Glo luminescent assay relative to control. It counts as functional. Conditions: read-out: Survival.
Data set [3] can be described thus: Stability in human plasma assessed as half-life at 10 uM incubated upto 480 mins by HPLC analysis. It counts as ADME, cell-free.
The test system of the next data set is MOLP-8. Briefly: Cytotoxicity against human MOLP8 cells assessed as cell survival at 30 uM incubated for 48 hrs by Cell Titer-Glo luminescent assay relative to control. Particulars: read-out: Survival. It counts as functional.
Another data set deals with MM1.S. Kind of data set: Cytotoxicity against human MM1.S cells assessed as cell survival at 30 uM incubated for 48 hrs by Cell Titer-Glo luminescent assay relative to control. It counts as functional. Particulars: read-out: Survival.
The target in another data set is Protein cereblon (Homo sapiens, UniProt Q96SW2). Briefly: Binding affinity to human CRBN TBD assessed as inhibition constant using BODIPY-uracil as substrate by Microscale thermophoresis assay. On the technique in general: In MST a laser heats a spot of the sample, and binding alters the fluorescence response.
Protein cereblon, sequence (Q96SW2 whole entry): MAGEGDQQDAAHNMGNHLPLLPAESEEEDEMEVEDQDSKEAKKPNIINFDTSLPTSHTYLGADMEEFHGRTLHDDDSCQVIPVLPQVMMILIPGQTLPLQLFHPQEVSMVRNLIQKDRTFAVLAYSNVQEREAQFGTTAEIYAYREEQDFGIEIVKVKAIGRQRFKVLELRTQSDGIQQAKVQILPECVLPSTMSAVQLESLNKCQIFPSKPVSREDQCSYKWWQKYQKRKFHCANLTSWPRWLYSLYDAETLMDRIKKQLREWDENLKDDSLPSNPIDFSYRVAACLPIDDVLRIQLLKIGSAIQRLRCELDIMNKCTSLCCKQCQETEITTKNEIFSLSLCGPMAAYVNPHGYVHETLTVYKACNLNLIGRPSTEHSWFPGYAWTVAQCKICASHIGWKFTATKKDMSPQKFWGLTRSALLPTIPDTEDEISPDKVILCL

`O=C1CCC2(CC(c3ccccc3Cl)=NO2)C(=O)N1` (stereo unspecified): the viability at 48 h, 30 µM in data set [1] was found to be 100%. In data set [2], the logP stood at 1.64. The viability at 30 µM in the data set with KMS-12-PE is 100%; in the data set on MOLP-8 it was 100%; with MM1.S, 43.3%. Besides, in data set [3], the half-life at 10 µM worked out at 4.97 h.

`O=C1CCC2(CC(c3ccccc3F)=NO2)C(=O)N1` (stereo unspecified): in data set [1], the viability at 48 h, 30 µM was 88.6%. In data set [2], this compound showed a logP of 1.37. Moreover, the viability at 30 µM in the data set on KMS-12-PE stood at 89.2%; in the data set on MOLP-8 it was 84.5%; with MM1.S, 76.5%.

Regarding `O=C1CCC2(CC(c3ccccc3Br)=NO2)C(=O)N1` (stereo unspecified), the viability at 48 h, 30 µM in data set [1] was found to be 74.9%. The lipophilicity (logP) in data set [2] came to 1.68. The results for the viability at 30 µM with KMS-12-PE, in the data set with MOLP-8 and with MM1.S were 97.8%, 100% and 88.3%, respectively.

Regarding `COc1ccc(C2=NOC3(CCC(=O)NC3=O)C2)c(OC)c1OC` (stereo unspecified), the viability at 48 h, 30 µM in data set [1] was 82.4%. In data set [2], this compound showed a logP of 2.67. Moreover, the viability at 30 µM in the data set on KMS-12-PE worked out at 72.2%; in the data set on MOLP-8 it was 66.3%; with MM1.S, 78.7%.

As for `CC(C)(C)C1=NOC2(CCC(=O)NC2=O)C1` (stereo unspecified), in data set [1], the viability at 48 h, 30 µM amounted to 100%. In addition, in data set [2], the logP worked out at 1.09. For the same compound, the figures for the viability at 30 µM in the data set with KMS-12-PE, in the data set with MOLP-8 and with MM1.S were 100%, 100% and 75.6%, respectively.

For `O=C1CCC2(CC(c3ccccc3I)=NO2)C(=O)N1` (stereo unspecified), in data set [1], the viability at 48 h, 30 µM is 100%. The compound further returned a logP in data set [2] of 1.75. Further, the viability at 30 µM in the data set with KMS-12-PE came to 100%; in the data set on MOLP-8 it was 82.2%; in the data set on MM1.S, 69.3%.

For `O=C1CCC2(CC(c3ccc(Cl)cc3Cl)=NO2)C(=O)N1` (stereo unspecified), the viability at 48 h, 30 µM in data set [1] was determined as 100%. In data set [2], the logP was found to be 2.68. Besides, the viability at 30 µM was determined as 100% in the data set on KMS-12-PE, 100% with MOLP-8 and 71.7% with MM1.S.

Regarding `CCC(CC)C1=NOC2(CCC(=O)NC2=O)C1` (stereo unspecified), the viability at 48 h, 30 µM in data set [1] is 91.2%. The logP in data set [2] amounted to 1.6. For the same compound, the results for the viability at 30 µM with KMS-12-PE, with MOLP-8 and in the data set on MM1.S were 98.9%, 94.1% and 89.1%, respectively.

As for `CC1(C)CC(=O)NC(=O)C1`, the negative-log Ki (pKi) on Protein cereblon was 3.99.

As to `O=C1CCC2(CC(c3ccccc3[N+](=O)[O-])=NO2)C(=O)N1` (stereo unspecified), the viability at 48 h, 30 µM in data set [1] worked out at 71.5%. Further, the log partition coefficient (logP) in data set [2] turned out to be 1.23. Besides, the values for the viability at 30 µM with KMS-12-PE, in the data set with MOLP-8 and with MM1.S were 88.5%, 75.5% and 81.9%, respectively.

For the compound `O=C1CCC2(CC(c3ccc(C(=O)O)cc3)=NO2)C(=O)N1` (stereo unspecified), the viability at 48 h, 30 µM in data set [1] came out at 99.5%. Besides, the viability at 30 µM came to 97.3% in the data set with KMS-12-PE, 100% in the data set on MOLP-8 and 95.6% with MM1.S.

For the compound `CCCC1=NOC2(CCC(=O)NC2=O)C1` (stereo unspecified), the viability at 48 h, 30 µM in data set [1] came to 100%. Moreover, the logP in data set [2] is 0.87. For the same compound, the viability at 30 µM with KMS-12-PE came out at 100%; with MOLP-8, 100%; in the data set on MM1.S, 76.7%.

Regarding `Nc1cccc2c1C(=O)N(C1CCC(=O)NC1=O)C2=O` (stereo unspecified) [POMALIDOMIDE], in data set [3], the half-life at 10 µM was determined as 3.03 h.

As to `O=C1CCC2(CC(C3CCCC3)=NO2)C(=O)N1` (stereo unspecified), in data set [1], the viability at 48 h, 30 µM is 89.9%. The logP in data set [2] turned out to be 1.28. Moreover, the viability at 30 µM in the data set on KMS-12-PE was 92%; in the data set on MOLP-8, 93%; with MM1.S, 62.2%.

On to `O=C1CCC2(CC(c3c(Cl)cccc3Cl)=NO2)C(=O)N1` (stereo unspecified), for which, in data set [1], the viability at 48 h, 30 µM was determined as 88.6%. The compound further came in with a log partition coefficient (logP) in data set [2] of 1.96. The viability at 30 µM with KMS-12-PE is 99.3%; with MOLP-8, 94.9%; in the data set with MM1.S, 39.5%.

On to `O=C1CCC(N2C(=O)c3ccccc3C2=O)C(=O)N1` (stereo unspecified) [THALIDOMIDE], for which the viability at 48 h, 30 µM in data set [1] came out at 94.2%. The compound further came in with a log partition coefficient (logP) in data set [2] of 0.3. The viability at 30 µM amounted to 44.1% in the data set with KMS-12-PE, 31.6% in the data set on MOLP-8 and 11.4% with MM1.S.

In the case of `COc1ccccc1C1=NOC2(CCC(=O)NC2=O)C1` (stereo unspecified), the viability at 48 h, 30 µM in data set [1] is 100%. The logP in data set [2] stood at 2.22. The viability at 30 µM in the data set on KMS-12-PE was determined as 86.6%; in the data set on MOLP-8, 79.3%; in the data set with MM1.S, 94.8%.

In the case of `O=C1CCC2(CC(C3CCCCC3)=NO2)C(=O)N1` (stereo unspecified), the viability at 48 h, 30 µM in data set [1] came out at 100%. Further, the lipophilicity (logP) in data set [2] stood at 1.87. The viability at 30 µM in the data set with KMS-12-PE is 100%; with MOLP-8, 97%; in the data set on MM1.S it was 100%.

In the case of `O=C1CCC2(CC(c3cccnc3)=NO2)C(=O)N1` (stereo unspecified), the viability at 48 h, 30 µM in data set [1] amounted to 83.6%. Besides, the values for the viability at 30 µM with KMS-12-PE, in the data set on MOLP-8 and in the data set with MM1.S were 88.9%, 75.5% and 23.2%, respectively.
